By IC50 is commonly meant the concentration at which inhibition is half-maximal.

In experiment [1] the target is 3',5'-cyclic-AMP phosphodiesterase 4D (Homo sapiens, UniProt Q08499). Briefly: Inhibition of PDE4D2 catalytic domain (86 to 413 residues) (unknown origin) using [3H]-cAMP as substrate after 15 mins by liquid scintillation counting method.
The species named for experiment [2] is Homo sapiens. The experiment in a line: Selectivity index, ratio of IC50 for PDE2A3 catalytic domain (222 to 904 residues) (unknown origin) to IC50 for PDE4D2 catalytic domain (86 to 413 residues) (unknown origin).
The target of experiment [3] is High affinity cGMP-specific 3',5'-cyclic phosphodiesterase 9A (Homo sapiens, UniProt O76083). The experiment in a line: Inhibition of PDE9A2 catalytic domain (181 to 506 residues) (unknown origin) using [3H]-cGMP/[3H]-cAMP as substrate after 15 mins by liquid scintillation counting method.
Sequence of High affinity cGMP-specific 3',5'-cyclic phosphodiesterase 9A (O76083 whole entry, the tested form may be a part): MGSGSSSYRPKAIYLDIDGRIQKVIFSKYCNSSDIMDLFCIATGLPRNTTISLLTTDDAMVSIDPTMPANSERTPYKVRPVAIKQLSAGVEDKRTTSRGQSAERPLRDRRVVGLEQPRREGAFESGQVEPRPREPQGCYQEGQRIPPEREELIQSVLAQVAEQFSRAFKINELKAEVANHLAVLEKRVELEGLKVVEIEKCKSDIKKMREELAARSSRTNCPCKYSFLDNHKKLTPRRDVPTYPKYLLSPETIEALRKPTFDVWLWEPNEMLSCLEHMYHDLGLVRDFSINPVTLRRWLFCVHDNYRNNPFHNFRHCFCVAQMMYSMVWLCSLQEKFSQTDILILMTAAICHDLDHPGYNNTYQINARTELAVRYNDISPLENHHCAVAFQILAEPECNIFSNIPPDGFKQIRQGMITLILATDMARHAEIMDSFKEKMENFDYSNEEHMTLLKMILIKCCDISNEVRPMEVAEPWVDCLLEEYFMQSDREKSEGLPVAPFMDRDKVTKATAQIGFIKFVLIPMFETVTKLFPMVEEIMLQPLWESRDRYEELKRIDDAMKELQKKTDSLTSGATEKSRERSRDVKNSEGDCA
For experiment [4], the species on record is Homo sapiens. The experiment in a line: Selectivity index, ratio of IC50 for PDE9A2 catalytic domain (181 to 506 residues) (unknown origin) to IC50 for PDE4D2 catalytic domain (86 to 413 residues) (unknown origin).
Experiment [5] addresses cAMP and cAMP-inhibited cGMP 3',5'-cyclic phosphodiesterase 10A (Homo sapiens, UniProt Q9Y233). Briefly: Inhibition of PDE10A2 catalytic domain (448 to 789 residues) (unknown origin) using [3H]-cGMP/[3H]-cAMP as substrate after 15 mins by liquid scintillation counting method.
Experiment [6] addresses cGMP-dependent 3',5'-cyclic phosphodiesterase (Homo sapiens, UniProt O00408). The experiment in a line: Inhibition of PDE2A3 catalytic domain (222 to 904 residues) (unknown origin) using [3H]-cGMP/[3H]-cAMP as substrate after 15 mins by liquid scintillation counting method.
For experiment [7], the target named is Dual specificity calcium/calmodulin-dependent 3',5'-cyclic nucleotide phosphodiesterase 1B (Homo sapiens, UniProt Q01064). Briefly: Inhibition of PDE1B2 catalytic domain (10 to 487 residues) (unknown origin) using [3H]-cGMP/[3H]-cAMP as substrate after 15 mins by liquid scintillation counting method.
Sequence of Dual specificity calcium/calmodulin-dependent 3',5'-cyclic nucleotide phosphodiesterase 1B (Q01064 whole entry, the tested form may be a part): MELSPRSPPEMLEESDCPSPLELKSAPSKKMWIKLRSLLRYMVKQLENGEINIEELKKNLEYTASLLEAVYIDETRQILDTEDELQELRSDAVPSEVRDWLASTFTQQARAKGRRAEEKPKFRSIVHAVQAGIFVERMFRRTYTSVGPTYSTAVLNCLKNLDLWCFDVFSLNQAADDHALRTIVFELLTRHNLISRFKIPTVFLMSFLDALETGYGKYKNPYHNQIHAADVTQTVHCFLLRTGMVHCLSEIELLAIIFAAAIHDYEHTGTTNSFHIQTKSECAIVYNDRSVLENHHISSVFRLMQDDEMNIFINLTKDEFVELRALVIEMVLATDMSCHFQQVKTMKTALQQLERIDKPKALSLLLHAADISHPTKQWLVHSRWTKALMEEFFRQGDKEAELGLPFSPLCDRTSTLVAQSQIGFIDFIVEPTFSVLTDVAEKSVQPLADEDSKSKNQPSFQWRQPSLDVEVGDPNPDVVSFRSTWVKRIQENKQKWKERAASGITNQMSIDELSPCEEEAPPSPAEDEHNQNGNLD
Experiment [8] addresses cGMP-specific 3',5'-cyclic phosphodiesterase (Homo sapiens, UniProt O76074). Briefly: Inhibition of PDE5A1 catalytic domain (535 to 860 residues) (unknown origin) using [3H]-cGMP as substrate after 15 mins by liquid scintillation counting method.
For experiment [9], the species on record is Homo sapiens. The experiment in a line: Selectivity index, ratio of IC50 for PDE5A1 catalytic domain (535 to 860 residues) (unknown origin) to IC50 for PDE4D2 catalytic domain (86 to 413 residues) (unknown origin).
The species named for experiment [10] is Homo sapiens. The experiment in a line: Selectivity index, ratio of IC50 for PDE1B2 catalytic domain (10 to 487 residues) (unknown origin) to IC50 for PDE4D2 catalytic domain (86 to 413 residues) (unknown origin).
The species entered for experiment [11] is Homo sapiens. The experiment in a line: Selectivity index, ratio of IC50 for PDE10A2 catalytic domain (448 to 789 residues) (unknown origin) to IC50 for PDE4D2 catalytic domain (86 to 413 residues) (unknown origin).

Sequence of 3',5'-cyclic-AMP phosphodiesterase 4D (Q08499 whole entry, the tested form may be a part): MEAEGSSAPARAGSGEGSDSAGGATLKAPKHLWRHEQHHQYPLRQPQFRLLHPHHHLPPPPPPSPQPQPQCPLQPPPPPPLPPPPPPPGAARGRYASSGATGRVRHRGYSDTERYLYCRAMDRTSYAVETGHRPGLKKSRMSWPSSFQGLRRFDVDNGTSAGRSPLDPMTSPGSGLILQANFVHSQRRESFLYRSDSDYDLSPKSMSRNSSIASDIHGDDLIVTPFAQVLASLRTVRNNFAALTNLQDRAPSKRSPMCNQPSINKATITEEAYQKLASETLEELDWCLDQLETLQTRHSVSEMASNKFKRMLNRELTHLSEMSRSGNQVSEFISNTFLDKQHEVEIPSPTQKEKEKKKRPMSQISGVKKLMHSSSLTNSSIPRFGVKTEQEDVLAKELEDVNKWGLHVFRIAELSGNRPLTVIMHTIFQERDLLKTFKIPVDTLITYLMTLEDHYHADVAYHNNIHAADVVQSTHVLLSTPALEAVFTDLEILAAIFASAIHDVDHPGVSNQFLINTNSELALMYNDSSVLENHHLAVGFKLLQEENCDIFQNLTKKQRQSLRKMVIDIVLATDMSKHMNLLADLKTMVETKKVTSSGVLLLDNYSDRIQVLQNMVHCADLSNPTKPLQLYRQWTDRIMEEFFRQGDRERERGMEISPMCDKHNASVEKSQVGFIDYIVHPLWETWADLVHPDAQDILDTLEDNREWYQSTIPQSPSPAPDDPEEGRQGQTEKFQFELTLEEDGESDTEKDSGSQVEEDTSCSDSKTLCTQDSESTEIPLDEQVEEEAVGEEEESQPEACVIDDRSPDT
Sequence of cAMP and cAMP-inhibited cGMP 3',5'-cyclic phosphodiesterase 10A (Q9Y233 whole entry, the tested form may be a part): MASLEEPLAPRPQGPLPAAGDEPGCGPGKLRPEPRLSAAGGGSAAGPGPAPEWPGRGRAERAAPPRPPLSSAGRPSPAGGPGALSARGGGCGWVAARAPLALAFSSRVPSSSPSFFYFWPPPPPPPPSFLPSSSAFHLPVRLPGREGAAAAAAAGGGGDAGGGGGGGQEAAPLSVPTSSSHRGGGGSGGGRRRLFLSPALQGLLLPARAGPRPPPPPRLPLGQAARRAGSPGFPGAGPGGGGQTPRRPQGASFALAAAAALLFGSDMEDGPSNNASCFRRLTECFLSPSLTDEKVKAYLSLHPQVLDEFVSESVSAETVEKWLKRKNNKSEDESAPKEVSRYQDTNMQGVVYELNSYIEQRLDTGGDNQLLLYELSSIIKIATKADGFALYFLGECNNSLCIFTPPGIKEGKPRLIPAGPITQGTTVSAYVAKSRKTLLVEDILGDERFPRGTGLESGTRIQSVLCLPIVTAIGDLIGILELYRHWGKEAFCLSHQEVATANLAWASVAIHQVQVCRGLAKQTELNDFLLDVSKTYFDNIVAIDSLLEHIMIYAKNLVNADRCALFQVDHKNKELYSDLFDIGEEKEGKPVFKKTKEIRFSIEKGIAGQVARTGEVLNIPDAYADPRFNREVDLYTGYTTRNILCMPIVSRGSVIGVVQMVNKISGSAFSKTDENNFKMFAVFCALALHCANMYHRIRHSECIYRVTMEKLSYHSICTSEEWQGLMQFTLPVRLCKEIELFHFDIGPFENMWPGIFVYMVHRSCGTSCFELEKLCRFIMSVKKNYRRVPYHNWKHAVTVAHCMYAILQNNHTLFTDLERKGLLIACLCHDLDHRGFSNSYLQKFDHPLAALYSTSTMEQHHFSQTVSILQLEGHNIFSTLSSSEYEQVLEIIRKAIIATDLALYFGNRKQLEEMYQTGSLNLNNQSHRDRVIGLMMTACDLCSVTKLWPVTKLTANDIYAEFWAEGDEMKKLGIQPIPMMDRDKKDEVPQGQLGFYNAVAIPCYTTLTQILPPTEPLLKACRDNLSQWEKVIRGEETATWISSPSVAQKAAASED
Sequence of cGMP-dependent 3',5'-cyclic phosphodiesterase (O00408 whole entry, the tested form may be a part): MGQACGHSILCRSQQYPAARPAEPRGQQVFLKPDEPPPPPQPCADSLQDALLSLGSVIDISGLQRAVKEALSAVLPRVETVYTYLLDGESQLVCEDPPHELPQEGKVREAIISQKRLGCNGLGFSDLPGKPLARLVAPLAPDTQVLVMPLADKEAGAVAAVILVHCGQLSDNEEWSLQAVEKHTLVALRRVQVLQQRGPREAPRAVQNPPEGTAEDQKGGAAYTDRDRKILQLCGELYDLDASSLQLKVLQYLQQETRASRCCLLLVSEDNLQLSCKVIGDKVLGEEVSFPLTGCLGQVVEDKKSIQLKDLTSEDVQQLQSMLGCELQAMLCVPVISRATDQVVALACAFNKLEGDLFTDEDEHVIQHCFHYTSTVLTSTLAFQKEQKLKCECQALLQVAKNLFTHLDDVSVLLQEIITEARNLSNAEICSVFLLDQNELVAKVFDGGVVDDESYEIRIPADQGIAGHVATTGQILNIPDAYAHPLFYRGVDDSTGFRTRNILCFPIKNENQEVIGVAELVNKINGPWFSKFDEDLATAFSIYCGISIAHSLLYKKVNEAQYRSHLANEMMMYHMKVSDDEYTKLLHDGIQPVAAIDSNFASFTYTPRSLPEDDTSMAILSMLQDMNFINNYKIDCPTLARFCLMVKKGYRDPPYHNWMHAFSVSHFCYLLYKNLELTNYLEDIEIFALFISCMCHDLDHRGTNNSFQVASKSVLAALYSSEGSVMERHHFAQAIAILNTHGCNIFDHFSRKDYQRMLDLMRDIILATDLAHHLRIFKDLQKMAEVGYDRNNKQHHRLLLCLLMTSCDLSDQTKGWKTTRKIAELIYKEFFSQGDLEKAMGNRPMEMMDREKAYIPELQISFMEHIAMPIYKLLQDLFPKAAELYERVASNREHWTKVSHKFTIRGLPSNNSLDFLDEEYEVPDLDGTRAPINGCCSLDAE

In experiment [1], `COc1cc([C@@H]2Oc3c(OC)cc(CCCO)cc3[C@H]2CO[C@@H]2OC[C@@H](O)[C@H](O)[C@H]2O)ccc1O` gave a half-inhibitory concentration (IC50) of over 20 µM.
`COc1cc([C@H]2Oc3c(OC)cc(CCCO)cc3[C@@H]2CO[C@@H]2OC[C@@H](O)[C@H](O)[C@H]2O)ccc1O` had a 50% inhibitory concentration (IC50) in experiment [1] of over 20 µM.
Regarding `COc1cc(CCCO)cc(OC)c1O`, the IC50 in experiment [1] was over 20 µM.
For `COc1cc([C@H]2c3cc(O)c(OC)cc3C[C@@H](CO)[C@@H]2CO[C@@H]2OC[C@@H](O)[C@H](O)[C@H]2O)ccc1O`, the IC50 in [1] was over 20 µM.
On to `C=C1CC[C@]2(C(=O)O)CC[C@]3(C)C(=CC[C@@H]4[C@@]5(C)C[C@@H](O)[C@@H](OC(=O)/C=C\c6ccc(O)cc6)C(C)(C)[C@@H]5CC[C@]43C)[C@@H]2[C@H]1C`, for which the IC50 in experiment [1] is 0.542 µM.
On to `COc1cc([C@H]2c3c(cc(OC)c(O)c3OC)C[C@@H](CO)[C@@H]2CO[C@@H]2OC[C@@H](O)[C@H](O)[C@H]2O)cc(OC)c1O` [LYONISIDE], for which, in [1], the IC50 is over 20 µM.
`CC1=CC(=O)CC(C)(C)[C@]1(O)/C=C/[C@@H](C)O`: the IC50 in [1] is over 20 µM.
As to `C=C1CC[C@]2(C(=O)O)CC[C@]3(C)C(=CC[C@@H]4[C@@]5(C)C[C@@H](O)[C@@H](OC(=O)/C=C/c6ccc(O)cc6)C(C)(C)[C@@H]5CC[C@]43C)[C@@H]2[C@H]1C`, the Ratio IC50 is over 204 in the experiment filed under Homo sapiens [2]; 20 in the experiment filed under Homo sapiens [4]; 16 in the experiment filed under Homo sapiens [9]; 11 in the experiment filed under Homo sapiens [10]; over 82 in the experiment listed under Homo sapiens [11]. Besides, the IC50 in experiment [3] is 4.83 µM; in experiment [5], over 20 µM; in experiment [6] it was over 50 µM; in [1], 0.245 µM; in experiment [7] it was 2.63 µM; in [8], 3.81 µM.
Consider `C=C1CC[C@]2(C(=O)O)CC[C@]3(C)C(=CC[C@@H]4[C@@]5(C)C[C@@H](O)[C@@H](O)C(C)(C)[C@@H]5CC[C@]43C)[C@@H]2[C@H]1C`, for which the IC50 in experiment [1] was over 20 µM.
